Like-named read-outs stand apart in the source and are kept apart here. Starred links: 1 amine or outer side, 2 acyl side, 3 side chain; linkers in the order of their positions; H or OH if unused. Positions of bridges follow the written chain, without caps; N, C: chain ends. Non-standard residues stand in square brackets, D forms with d. Residues, ends and D or L forms follow the SMILES beside them. *: point of attachment. Arg(Nω,Nω'-propylene) = N[C@@H](CCCNC1=NCCCN1)C(=O)O; Orn(2-imidazolinyl) = N[C@@H](CCCNC1=NCCN1)C(=O)O; dαMeDab = C[C@](CCN[*:3])(N[*:1])C(=O)[*:2]; dPhg(2-F) = N[C@@H](C(=O)O)c1ccccc1F; dPhg = N[C@@H](C(=O)O)c1ccccc1; Pyridin(2-yl) = c1ccc(*)nc1; Isobutyryl = CC(C)C(=O)*; Orn = NCCC[C@H](N)C(=O)O; Nva = CCC[C@H](N)C(=O)O; Abu = CC[C@H](N)C(=O)O

Series [1] has as its system MOLM-13 leukemia cells carrying MLL-AF9 fusion. In words: cell viability assay (WST-8), MOLM-13. In kind it is cell-based. Conditions: Homo sapiens, MOLM-13, 96 h, read-out: MOLM-13 IC50 (μM). A general note: Tetrazolium assays rely on reduction of a dye to a coloured formazan, in cell work by metabolically active cells.
Description: To assess cell viability, MOLM-13 leukemia cells carrying MLL-AF9 fusion, MV4;11 leukemia cells carrying MLL-AF4 fusion or HL-60 leukemia cells carrying no MLL fusion were seeded 1×10^4 cell/well in 96-well plates and treated with an inhibitor for 4 days at different concentrations, in culture media containing 0.2% DMSO as the final concentration. Cell viability was determined using the WST-8 cell proliferation assay kit (Dojindo Molecular Technologies) according to manufacturer's instructions. Three independent experiments in triplicates were performed.
The target in another series is T1, WDR5 (Homo sapiens, UniProt P61964).
T1 construct: N-terminal His-tagged WDR5 protein (residues 24-334), named WDR5Δ23; made in house; host or cells: E. coli Rosetta 2 (DE3)
The experiment in a line: fluorescence polarization (FP) based competitive binding assay to WDR5 protein.

Setting [2] is: amide bond, 14-membered ring, HATU/DIEA, DMF, with chain assembly.

Description for WDR5: The plates were incubated at room temperature on a shaker for 3h, and then the mP values were measured using the Tecan Infinite M-1000 plate reader (Tecan U.S., Research Triangle Park, N.C.).

`CC[C@@H]1NC(=O)[C@H](CCCN/C(=N\C)NS(=O)(=O)c2c(C)c(C)c3c(c2C)CC(C)(C)O3)NC(=O)[C@](C)(NC(=O)C(C)C)CC=CCNC(=O)[C@@H](c2ccccc2)NC1=O` showed a ring closure, yield after HPLC (from (R)—N-((8S,11S,14R,E)-11-ethyl-9,12,15-trioxo-3-(2,2,4,6,7-pentamethyl-2,3-dihydrobenzofuran-5-sulfonamido)-14-phenyl-2,4,10,13,16-pentaazanonadeca-2,18-dien-8-yl)-2-isobutyramido-2-methylpent-4-enamide, rcm bond, 16-membered ring, Hoveyda-Grubbs II (0.5 eq), CH2Cl2, 25.0 °C, 3 steps) of 75%.

As for “N-((3R,6S,9S,12R)-6-ethyl-12-methyl-2,5,8,11-tetraoxo-3-phenyl-9-(3-ureidopropyl)-1,4,7,10-tetraazacyclotetradecan-12-yl)isobutyramide”, the ring closure, yield after HPLC under setting [2] amounted to 6%.

Regarding “N-((3R,6S,9S,12R)-6-ethyl-9-(3-guanidinopropyl)-12-methyl-2,5,8,11-tetraoxo-3-phenyl-1,4,7,10-tetraazacyclotetradecan-12-yl)isobutyramide”, under setting [2], the ring closure, yield after HPLC turned out to be 8.7%.

Under “from iPrCO-(R)-αMe-allylGly-Arg(Pbf)-Abu-dPhg-NH-(but-3-enyl)?, rcm bond, 17-membered ring, Hoveyda-Grubbs II (0.5 eq), CH2Cl2, 25.0 °C, 3 steps”, `CC[C@@H]1NC(=O)[C@H](CCCNC(=N)NS(=O)(=O)c2c(C)c(C)c3c(c2C)CC(C)(C)O3)NC(=O)[C@](C)(NC(=O)C(C)C)CC=CCCNC(=O)[C@@H](c2ccccc2)NC1=O` yielded a ring closure, yield after HPLC of 28%.

Take `CC[C@@H]1NC(=O)[C@H](CCCNC(=N)NS(=O)(=O)c2c(C)c(C)c3c(c2C)CC(C)(C)O3)NC(=O)[C@](C)(NC(=O)C(C)C)CC=CCN(C)C(=O)[C@@H](c2ccc(F)cc2)NC1=O`: the ring closure, yield after HPLC (from (R)—N-((6S,9S,12R)-9-ethyl-12-(4-fluorophenyl)-1-imino-14-methyl-7,10,13-trioxo-1-(2,2,4,6,7-pentamethyl-2,3-dihydrobenzofuran-5-sulfonamido)-2,8,11,14-tetraazaheptadec-16-en-6-yl)-2-isobutyramido-2-methylpent-4-enamide, rcm bond, 16-membered ring, Hoveyda-Grubbs II (0.5+0.5 eq), CH2Cl2, 45.0 °C, 3 steps) turned out to be 11%.

As to “N-((3R,6S,9S,12R)-6-ethyl-9-(3-guanidinopropyl)-12-methyl-2,5,8,11-tetraoxo-3-phenyl-1,4,7,10-tetraazacyclopentadecan-12-yl)isobutyramide”, under “amide bond, 15-membered ring, HATU/DIEA, DMF, with chain assembly”, the ring closure, yield after HPLC was determined as 19.4%.

As to `CC[C@@H]1NC(=O)[C@H](CCCNC2=NCCN2)NC(=O)[C@](C)(NC(=O)C(C)C)CCNC(=O)[C@@H](c2ccccc2)NC1=O` [Cpd. No. 17, N-((3R,6S,9S,12R)-9-(3-((4,5-dihydro-1H-imidazol-2-yl)amino)propyl)-6-ethyl-12-methyl-2,5,8,11-tetraoxo-3-phenyl-1,4,7,10-tetraazacyclotetradecan-12-yl)isobutyramide] (Isobutyryl-[dαMeDab][Orn(2-imidazolinyl)][Abu][dPhg]; lactam 1-C), the IC50 – broadly, the concentration that gives 50% inhibition – in series [1] was 0.088 µM; on WDR5, 2.4 nM. Besides, the Ki (as a rule, the equilibrium dissociation constant of an inhibitor or competing ligand from its target) on WDR5 was less than 1 nM.

Under setting [2], “N-((3R,6S,12R)-6-ethyl-12-methyl-2,5,8,11-tetraoxo-3-phenyl-9-(3-phenylpropyl)-1,4,7,10-tetraazacyclotetradecan-12-yl)isobutyramide” returned a ring closure, yield after HPLC of 7%.

In turn, “N-((3R,6S,9S,12R)-6-ethyl-12-methyl-9-(3-(3-methylguanidino)propyl)-2,5,8,11-tetraoxo-3-phenyl-1,4,7,10-tetraazacyclotetradecan-12-yl)isobutyramide” displayed a ring closure, yield after HPLC under setting [2] of 15.4%.

Compound `CC[C@@H]1NC(=O)[C@H](CCCNC(=N)NS(=O)(=O)c2c(C)c(C)c3c(c2C)CC(C)(C)O3)NC(=O)[C@](C)(NC(=O)C(C)C)CC=CCCCCCNC(=O)[C@@H](c2ccccc2)NC1=O` registered a ring closure, yield after HPLC (from iPrCO-(R)-αMe-allylGly-Arg(Pbf)-Abu-dPhg-NH-(hept-6-enyl)?, rcm bond, 20-membered ring, Hoveyda-Grubbs II (0.5 eq), CH2Cl2, 25.0 °C, 3 steps) of 27%.

The compound `CC[C@@H]1NC(=O)[C@H](CCCNC(=N)NS(=O)(=O)c2c(C)c(C)c3c(c2C)CC(C)(C)O3)NC(=O)[C@](C)(NC(=O)C(C)C)CC=CCN(C)C(=O)[C@@H](c2ccc(Cl)cc2)NC1=O` returned a ring closure, yield after HPLC (from (R)—N-((6S,9S,12R)-12-(4-chlorophenyl)-9-ethyl-1-imino-14-methyl-7,10,13-trioxo-1-(2,2,4,6,7-pentamethyl-2,3-dihydrobenzofuran-5-sulfonamido)-2,8,11,14-tetraazaheptadec-16-en-6-yl)-2-isobutyramido-2-methylpent-4-enamide, rcm bond, 16-membered ring, Hoveyda-Grubbs II (0.5+0.5 eq), CH2Cl2, 45.0 °C, 3 steps) of 11%.

Under setting [2], “N-((3S,6S,9S,12R)-6-ethyl-12-methyl-9-(3-(3-methylguanidino)propyl)-2,5,8,11-tetraoxo-3-phenyl-1,4,7,10-tetraazacyclotetradecan-12-yl)isobutyramide” gave a ring closure, yield after HPLC of 7%.

Compound “N-((3R,6S,9S,12R)-6-ethyl-9-(3-guanidinopropyl)-2,5,8,11-tetraoxo-3-phenyl-1,4,7,10-tetraazacyclohexadecan-12-yl)isobutyramide” had a ring closure, yield after HPLC (amide bond, 16-membered ring, HATU/DIEA, DMF, 5.0 mM, with chain assembly) of 12.7%.

For the compound `CC[C@@H]1NC(=O)[C@H](CCCNC2=NCCCN2)NC(=O)[C@](C)(NC(=O)C(C)C)CCNC(=O)[C@@H](c2ccccc2)NC1=O` [Cpd. No. 92, N-((3R,6S,9S,12R)-6-ethyl-12-methyl-2,5,8,11-tetraoxo-3-phenyl-9-(3-((1,4,5,6-tetrahydropyrimidin-2-yl)amino)propyl)-1,4,7,10-tetraazacyclotetradecan-12-yl)isobutyramide] (Isobutyryl-[dαMeDab][Arg(Nω,Nω'-propylene)][Abu][dPhg]; lactam 1-C), the IC50 in series [1] was 0.033 µM; at WDR5 it was 1.86 nM. Also, on WDR5, the Ki was less than 1 nM.

Turning to `CC[C@@H]1NC(=O)[C@H](CCCNC(=N)N)NC(=O)[C@](C)(NC(=O)C(C)C)CCNC(=O)[C@@H](c2cccc(F)c2)NC1=O` [Cpd. No. 80, N-((3R,6S,9S,12R)-6-ethyl-3-(3-fluorophenyl)-9-(3-guanidinopropyl)-12-methyl-2,5,8,11-tetraoxo-1,4,7,10-tetraazacyclotetradecan-12-yl)isobutyramide], the IC50 in series [1] was 0.42 µM. At WDR5, this compound had an IC50 of 2.87 nM and a Ki of less than 1 nM.

Regarding `CC[C@@H]1NC(=O)[C@H](CCCNc2ccccn2)NC(=O)[C@](C)(NC(=O)C(C)C)CCNC(=O)[C@@H](c2ccccc2)NC1=O` [Cpd. No. 12, N-((3R,6S,9S,12R)-6-ethyl-12-methyl-2,5,8,11-tetraoxo-3-phenyl-9-(3-(pyridin-2-ylamino)propyl)-1,4,7,10-tetraazacyclotetradecan-12-yl)isobutyramide] (Isobutyryl-[dαMeDab][Orn](Pyridin(2-yl))[Abu][dPhg]; lactam 1-C), in series [1], the IC50 was greater than 10 µM. Also, at WDR5, the half-maximal inhibitory concentration (IC50) is 3.25 nM and the Ki was less than 1 nM.

On to `CC(C)C(=O)N[C@]1(C)CCNC(=O)[C@@H](c2ccccc2)NC(=O)[C@H](C(C)C)NC(=O)[C@H](CCCNC(=N)N)NC1=O` [Cpd. No. 89, N-((3R,6S,9S,12R)-9-(3-guanidinopropyl)-6-isopropyl-12-methyl-2,5,8,11-tetraoxo-3-phenyl-1,4,7,10-tetraazacyclotetradecan-12-yl)isobutyramide] (Isobutyryl-[dαMeDab]RV[dPhg]; lactam 1-C), for which the IC50 in series [1] is greater than 10 µM. Also, on WDR5, the IC50 is 1.83 nM and the Ki was less than 1 nM.

For the compound `CC[C@@H]1NC(=O)[C@H](CCCNC(=N)N)NC(=O)[C@](C)(NC(=O)C(C)C)CCNC(=O)[C@@H](c2ccc3ccccc3c2)NC1=O` [Cpd. No. 82, N-((3R,6S,9S,12R)-6-ethyl-9-(3-guanidinopropyl)-12-methyl-3-(naphthalen-2-yl)-2,5,8,11-tetraoxo-1,4,7,10-tetraazacyclotetradecan-12-yl)isobutyramide], the IC50 in series [1] came to 0.054 µM. At WDR5, this compound had an IC50 of 2.3 nM and a Ki of less than 1 nM.

As to `CC[C@@H]1NC(=O)[C@H](CCCNC(=N)NC(C)=O)NC(=O)[C@](C)(NC(=O)C(C)C)CCNC(=O)[C@@H](c2ccccc2)NC1=O` [Cpd. No. 91, N-((3R,6S,9S,12R)-9-(3-(3-acetylguanidino)propyl)-6-ethyl-12-methyl-2,5,8,11-tetraoxo-3-phenyl-1,4,7,10-tetraazacyclotetradecan-12-yl)isobutyramide] (Isobutyryl-[dαMeDab]R(Ac)[Abu][dPhg]; lactam 1-C), in series [1], the IC50 worked out at 0.47 µM. At WDR5, this compound showed an IC50 of 3.65 nM and a Ki of less than 1 nM.

`CC[C@@H]1NC(=O)[C@H](CCCNC2=NCCCN2)NC(=O)[C@](C)(NC(=O)C(C)C)CCNC(=O)[C@@H](c2ccc3ccccc3c2)NC1=O` [Cpd. No. 98, N-((3R,6S,9S,12R)-6-ethyl-12-methyl-3-(naphthalen-2-yl)-2,5,8,11-tetraoxo-9-(3-((1,4,5,6-tetrahydropyrimidin-2-yl)amino)propyl)-1,4,7,10-tetraazacyclotetradecan-12-yl)isobutyramide]: the IC50 in series [1] was found to be 0.039 µM. On WDR5, this compound yielded an IC50 of 2.54 nM and a Ki of less than 1 nM.

On to `CCC[C@@H]1NC(=O)[C@H](CCCNC(=N)N)NC(=O)[C@](C)(NC(=O)C(C)C)CCNC(=O)[C@@H](c2ccccc2)NC1=O` [Cpd. No. 88, N-((3R,6S,9S,12R)-9-(3-guanidinopropyl)-12-methyl-2,5,8,11-tetraoxo-3-phenyl-6-propyl-1,4,7,10-tetraazacyclotetradecan-12-yl)isobutyramide] (Isobutyryl-[dαMeDab]R[Nva][dPhg]; lactam 1-C), for which the IC50 in series [1] is 6.33 µM. On WDR5, the IC50 was 2.38 nM and the Ki is less than 1 nM.

As for `CC[C@@H]1NC(=O)[C@H](CCCNC(=N)N)NC(=O)[C@](C)(NC(=O)C(C)C)CCNC(=O)[C@@H](c2ccccc2F)NC1=O` [Cpd. No. 79, N-((3R,6S,9S,12R)-6-ethyl-3-(2-fluorophenyl)-9-(3-guanidinopropyl)-12-methyl-2,5,8,11-tetraoxo-1,4,7,10-tetraazacyclotetradecan-12-yl)isobutyramide] (Isobutyryl-[dαMeDab]R[Abu][dPhg(2-F)]; lactam 1-C), the IC50 worked out at 0.35 µM in series [1] and 0.32 nM at WDR5. Moreover, the Ki at WDR5 is less than 1 nM.
